Structures can show the parent of a compound that is named as a salt.
Tests used:
human LDL [1] = test: Modification (peroxidation) of human LDL by copper sulphate, MDA production; assay type: biochemical; conditions: for IC50: inhibition of human LDL oxidation induced by copper sulphate (5.10^-6 M), 24 hours, MDA production, read-out: IC50 (M) Cu^2+ (converted); for activity compared with probucol or vitamin E in protecting human LDL: human LDL in vitro, modifications induced by copper sulphate and endothelial cells
Description: (§1) The activity of the compounds was tested in comparison with probucol and vitamin E taken as reference products.
1.1.1 Modification of LDL by copper sulphate
Human LDL are incubated for 24 hours in the presence of copper sulphate (5.10^-6 M) and in the absence or in the presence of the test compounds (10^-9 M to 10^-4 M).
After incubation, the peroxidation of the LDL is evaluated by agar gel electrophoresis and by the formation of one of the products of lipid peroxidation: malonic dialdehyde (MDA) (Parthasarathy S., Young S. G., Witztum J. L., Pittman R. C., and Steinberg D.; J. Clin. Invest. 77; 641-644, 1986).
(§2) The activity of the test compounds is evaluated by calculating the concentrations that reduce by 50% (IC50) the production of MDA compared with the control experiments without those compounds.

human LDL [2] = test: Modification (peroxidation) of human LDL by endothelial cells from the rabbit aorta, MDA production; assay type: cell-based; conditions: for IC50: inhibition of human LDL oxidation induced by endothelial cells (rabbit aorta), 24 hours, MDA production
Description: as §1
1.1.2 Modification of LDL by endothelial cells
Human LDL are incubated for 24 hours in the presence of endothelial cells from the rabbit aorta (RECL B4 line provided by Professor Steinberg, U.S.A), and in the absence or in the presence of the test compounds (10^-9 M to 10^-4 M).
After incubation, the peroxidation of the LDL is evaluated by agar gel electrophoresis and by the formation of one of the products of lipid peroxidation: malonic dialdehyde (MDA) (Steinbrecher U. P., Parthasarathy S., Leake D. S., Witztum J. L., and Steinberg D.; Proc. Nat. Acad. Sci. U.S.A 81, 3883-3887, 1984).
as §2

LDL of Watanabe rabbits = test: Ex vivo study: peroxidation by copper sulphate of LDL from orally treated Watanabe rabbits, MDA production; assay type: in vivo
Description: as §1
2.1 Materials and methods
Watanabe rabbits (genetically hyperlipidaemic rabbits) weighing from 3 kg to 5 kg are used. […]
After treatment, the LDL of the animals are prepared by ultracentrifugation and subjected to oxidation with copper sulphate (5.10^-6 M). The lipid peroxidation of the LDL is evaluated after various periods of incubation with copper sulphate (from 2 to 24 hours) by measuring the formation of MDA.
Table B groups the MDA production values according to the period of incubation with copper sulphate of the LDL originating from control animals and from animals treated with the compound of Example 1 at different doses or with probucol.

Compound	IC50 (human LDL [1]) [M]	IC50 (human LDL [2]) [nM]	activity compared with probucol or vitamin E in protecting human LDL (human LDL [1])	further results
Cc1c(C)c2c(c(C)c1O)CCC(C)(/C=C\Cc1ccc(OC(C)(C)C(=O)O)cc1)O2 (racemic) [Example 15, Tert-butylamine (Z)-(R,S)-2-{4-3-(6-hydroxy-2,5,7,8-tetramethylchroman-2-yl)prop-2-en-1-yl!phenoxy}isobutyrate]	4e-08			
Cc1c(C)c2c(c(C)c1O)CCC(C)(CCCc1ccc(OC(C)(C)C(=O)O)cc1)O2 (racemic) [Example 18, Tert-butylamine (R,S)-2-{4-3-(6-hydroxy-2,5,7,8-tetramethylchroman-2-yl)propyl!phenoxy}isobutyrate]	6e-08			
CC(C)(Oc1ccc(CCSc2cc(C(C)(C)C)c(O)c(C(C)(C)C)c2)cc1)C(=O)O [Example 1, 2-{4-2-(3,5-di-tert-butyl-4-hydroxyphenylthio)ethyl!phenoxy}isobutyric acid]	5e-08	3	greater activity	times more effective than is probucol (test using endothelial cells) (human LDL [2]; endothelial cells, compared with probucol): 1000 times; MDA production (LDL of Watanabe rabbits; 50 mg/kg/day orally, 3 days, 2 hours incubation of LDL with copper sulphate): 0.66 nmol/mg proteins; MDA production (LDL of Watanabe rabbits; 50 mg/kg/day orally, 3 days, 4 hours incubation of LDL with copper sulphate): 0.35 nmol/mg proteins; MDA production (LDL of Watanabe rabbits; 50 mg/kg/day orally, 3 days, 6 hours incubation of LDL with copper sulphate): 0.31 nmol/mg proteins; MDA production (LDL of Watanabe rabbits; 50 mg/kg/day orally, 3 days, 8 hours incubation of LDL with copper sulphate): 0.26 nmol/mg proteins; MDA production (LDL of Watanabe rabbits; 50 mg/kg/day orally, 3 days, 24 hours incubation of LDL with copper sulphate): 0.86 nmol/mg proteins; inhibition of LDL peroxidation induced by copper sulphate (LDL of Watanabe rabbits; from a dose of 50 mg/kg/day): completely inhibits
Cc1cc(SCCc2ccc(OC(C)(C)C(=O)O)cc2)c(C)c(C)c1O [Example 3, 2-{4-2-(4-hydroxy-2,3,5-trimethylphenylthio)ethyl!phenoxy}isobutyric acid]	9e-08		greater activity	
CC(C)(Oc1ccc(CSc2cc(C(C)(C)C)c(O)c(C(C)(C)C)c2)cc1)C(=O)O [Example 4, 2-4-(3,5-di-tert-butyl-4-hydroxyphenylthiomethyl)phenoxy!isobutyric acid]	3e-08		greater activity	
CC(C)(Oc1ccc(CCCSc2cc(C(C)(C)C)c(O)c(C(C)(C)C)c2)cc1)C(=O)O [Example 5, tert-butylamine salt of 2-{4-3-(3,5-di-tert-butyl-4-hydroxyphenylthio)propyl!phenoxy}isobutyric acid]	4e-08		greater activity	
Cc1cc(OCCc2ccc(OC(C)(C)C(=O)O)cc2)c(C)c(C)c1O [Example 9, 2-{4-2-(4-hydroxy-2,3,5-trimethylphenoxy)ethyl!phenoxy}isobutyric acid]	5e-07			
CC(C)(Oc1ccc(CCOc2cc(C(C)(C)C)c(O)c(C(C)(C)C)c2)cc1)C(=O)O [Example 10, 2-{4-2-(3,5-di-tert-butyl-4-hydroxyphenoxy)ethyl!phenoxy}isobutyric acid]	2e-08	7		
CC(C)(Sc1cc(C(C)(C)C)c(O)c(C(C)(C)C)c1)Sc1cc(C(C)(C)C)c(O)c(C(C)(C)C)c1 [PROBUCOL, probucol, reference compound]	3e-06	4000		retardation of LDL peroxidation compared with control animals (LDL of Watanabe rabbits; 250 mg/kg/day): approximately 2 hours; MDA production (LDL of Watanabe rabbits; 250 mg/kg/day orally, 2 hours incubation of LDL with copper sulphate): 1.85 nmol/mg proteins; MDA production (LDL of Watanabe rabbits; 250 mg/kg/day orally, 4 hours incubation of LDL with copper sulphate): 3.50 nmol/mg proteins; MDA production (LDL of Watanabe rabbits; 250 mg/kg/day orally, 6 hours incubation of LDL with copper sulphate): 4.90 nmol/mg proteins; MDA production (LDL of Watanabe rabbits; 250 mg/kg/day orally, 8 hours incubation of LDL with copper sulphate): 12.26 nmol/mg proteins; MDA production (LDL of Watanabe rabbits; 250 mg/kg/day orally, 24 hours incubation of LDL with copper sulphate): 23.81 nmol/mg proteins
vitamin E [reference compound]	> 0.0001	4000		
